Results: ChEMBL document CHEMBL4619786, “Discovery of Novel Resorcinol Dibenzyl Ethers Targeting the Programmed Cell Death-1/Programmed Cell Death-Ligand 1 Interaction as Potential Anticancer Agents” (J Med Chem, 2020)
Calls of active or inactive are those of the source. No cut-off for these calls is given here.

Legend:
[1] = Toxicity in mouse B16/F10 cells implanted […] mouse assessed as effect on physical activity at 25 to 100 mg/kg, ig administered once daily via gavage for 15 days measured during compound dosing; type: organism-based; details: in vivo, po, 360 h
B16-F10 [2] = assay: Antitumor activity against mouse B16/F10 cells implanted in BALB/c mouse assessed as tumor growth inhibition at 50 mg/kg, ig administered once daily via gavage for 15 days relative to control; type: functional; details: B16-F10, po, 360 h, read-out: TGI
B16-F10 [3] = assay: Antitumor activity against mouse B16/F10 cells implanted in BALB/c mouse assessed as tumor weight at 25 mg/kg, ig administered once daily via gavage for 15 days measured 24 hrs post-last dose (reference value: 0.84 +/- 0.32 g); type: functional
[4] = Toxicity in mouse B16/F10 cells implanted […] mouse assessed as change in thymus weight at 25 to 100 mg/kg, ig administered once daily via gavage for 15 days measured 24 hrs post-last dose; type: organism-based; details: in vivo, po
Mus musculus [5] = assay: Effect on spleen helper T cell population in mouse B16/F10 cells implanted […] mouse assessed as CD3-positive/CD4-positive cell population at 25 mg/kg, ig administered once daily via gavage for 15 days measured 24 hrs post-last dose by immunostaining based flow cytometry (reference value: 27.7%); type: ADME, organism-based; details: in vivo, po
Mus musculus [6] = assay: (§1) Immunostimulatory activity in mouse B16/F10 cells implanted BALB/c mouse assessed as increase in activation of tumor-microenvironment mediated helper T cells in tumor by measuring CD3-positive/CD4-positive cell population at 50 mg/kg, ig administered once daily via gavage for 15 days measured 24 hrs post-last dose by immunostaining based flow cytometry (reference value: 6.15%); type: functional
Mus musculus [7] = assay: Effect on spleen helper T cell population in mouse B16/F10 cells implanted […] mouse assessed as CD3-positive cell population at 25 mg/kg, ig administered once daily via gavage for 15 days measured 24 hrs post-last dose by immunostaining based flow cytometry (reference value: 14.7%); type: organism-based; details: in vivo, po
[8] = Selectivity ratio of IC50 for inhibition of mouse biotin-labelled C-terminal Fc-fused/Avi-tagged PD1/Fc-fused PDL1 expressed in HEK293 cells protein-protein interaction to IC50 for inhibition of human PD1/PDL1 protein-protein interaction; type: cell-based
Mus musculus [9] = assay: (§2) Effect on spleen helper T cell population in mouse B16/F10 cells implanted […] mouse assessed as spleen cell population at 100 mg/kg, ig administered once daily via gavage for 15 days measured 24 hrs post-last dose by immunostaining based flow cytometry (reference value: 56.1 %); type: ADME, organism-based; details: in vivo, po
Mus musculus [10] = assay: as §1, with “activated cytotoxic” for “helper”, “CD8-positive” for “CD3-positive/CD4-positive”, “25” for “50”, “2.2%)” for “6.15%)”; type: functional
H22 = assay: Antitumor activity against […] cells xenografted in BALB/c mouse assessed as tumor growth inhibition at 25 mg/kg, ip administered once daily 14 days relative to control; type: functional; details: 336 h, read-out: TGI
[11] = Toxicity in mouse B16/F10 cells implanted […] mouse assessed as increase in body weight at 25 to 100 mg/kg, ig administered once daily via gavage for 15 days measured during compound dosing; type: organism-based; details: in vivo, po, 360 h
[12] = AUC (0 to infinity) in Sprague-Dawley rat at 1 mg/kg, iv by LC-MS/MS analysis; type: ADME, organism-based; design: dose 1 mg/kg, time infinity, route intravenous; details: in vivo
[13] = Toxicity in Sprague-Dawley rat at 10 mg/kg, po; type: organism-based; details: in vivo
Mus musculus [14] = assay: Effect on spleen helper T cell population in mouse B16/F10 cells implanted […] mouse assessed as CD3-positive cell population at 100 mg/kg, ig administered once daily via gavage for 15 days measured 24 hrs post-last dose by immunostaining based flow cytometry (reference value: 14.7%); type: organism-based; details: in vivo, po
Mus musculus [15] = assay: Effect on spleen helper T cell population in mouse B16/F10 cells implanted […] mouse assessed as spleen cell population at 50 mg/kg, ig administered once daily via gavage for 15 days measured 24 hrs post-last dose by immunostaining based flow cytometry (reference value: 56.1 %); type: ADME, organism-based; details: in vivo, po
[16] = Tmax in Sprague-Dawley rat at 10 mg/kg, po by LC-MS/MS analysis; type: ADME, organism-based; details: in vivo
[17] = Half life in Sprague-Dawley rat at 1 mg/kg, iv by LC-MS/MS analysis; type: ADME, organism-based; details: in vivo
Mus musculus [18] = assay: as §2, with “as CD3-positive/CD4-positive” for “as spleen”, “value: 27.7” for “value: 56.1”; type: ADME, organism-based; details: in vivo, po
[19] = Tmax in Sprague-Dawley rat at 1 mg/kg, iv by LC-MS/MS analysis; type: ADME, organism-based; details: in vivo
[20] = Half life in Sprague-Dawley rat at 10 mg/kg, po by LC-MS/MS analysis; type: ADME, organism-based; details: in vivo
Mus musculus [21] = assay: as §1, with “melanoma” for “CD3-positive/CD4-positive”, “100” for “50”, “70%)” for “6.15%)”; type: functional
[22] = Toxicity in mouse B16/F10 cells implanted […] mouse assessed as histological changes in liver at 25 to 100 mg/kg, ig administered once daily via gavage for 15 days measured 24 hrs post-last dose by H and E staining based microscopic analysis; type: organism-based; details: in vivo, po
Mus musculus [23] = assay: (§3) Effect on activated cytotoxic T cell population in mouse B16/F10 cells implanted […] mouse assessed as CD3-positive/CD8-positive cell population in spleen at 100 mg/kg, ig administered once daily via gavage for 15 days measured 24 hrs post-last dose by immunostaining based flow cytometry (reference value: 14.2 %); type: organism-based; details: in vivo, po
Mus musculus [24] = assay: as §3, with “25” for “100”; type: organism-based; details: in vivo, po
Mus musculus [25] = assay: as §1, with “CD3-positive” for “CD3-positive/CD4-positive”, “18.9%)” for “6.15%)”; type: functional
Mus musculus [26] = assay: Effect on activated cytotoxic T cell population in mouse B16/F10 cells implanted […] mouse assessed as spleen cell population at 25 mg/kg, ig administered once daily via gavage for 15 days measured 24 hrs post-last dose by immunostaining based flow cytometry (reference value: 57.9 %); type: organism-based; details: in vivo, po
Mus musculus [27] = assay: as §1, with “activated cytotoxic” for “helper”, “CD3-positive/CD8-positive” for “CD3-positive/CD4-positive”, “100” for “50”, “4.18%)” for “6.15%)”; type: functional
Mus musculus [28] = assay: Immunostimulatory activity in mouse B16/F10 cells implanted […] mouse assessed as activation of tumor microenvironment by measuring increase in tumor infiltrating lymphocytes at 25 to 100 mg/kg, ig administered once daily via gavage for 15 days measured 24 hrs post last dose by H and E staining-based microscopic method; type: functional, organism-based
Mus musculus [29] = assay: Effect on activated cytotoxic T cell population in mouse B16/F10 cells implanted […] mouse assessed as spleen cell population at 50 mg/kg, ig administered once daily via gavage for 15 days measured 24 hrs post-last dose by immunostaining based flow cytometry (reference value: 57.9 %); type: organism-based; details: in vivo, po
Mus musculus [30] = assay: Effect on activated cytotoxic T cell population in mouse B16/F10 cells implanted […] mouse assessed as CD8-positive cell population in spleen at 50 mg/kg, ig administered once daily via gavage for 15 days measured 24 hrs post-last dose by immunostaining based flow cytometry (reference value: 0.383 %); type: organism-based; details: in vivo, po
Mus musculus [31] = assay: as §1, with “activated cytotoxic” for “helper”, “CD3-positive” for “CD3-positive/CD4-positive”, “100” for “50”, “20.8%)” for “6.15%)”; type: functional

Activity (Mus musculus [5]): 24.4%
Activity (Mus musculus [7]): 13.8%
Activity (Mus musculus [9]): 60.4%
AUC(0-inf) [12]: 1050 ng·h/mL
Activity (Mus musculus [14]): 12.8%
Activity (Mus musculus [15]): 53.9%
Tmax [16]: 0.6 h
half-life [17]: 1.5 h
Activity (Mus musculus [18]): 25%
Tmax [19]: 4.98 min
half-life [20]: 10.9 h
SMILES: Cc1c(COc2cc(OCc3cccc(C#N)c3)c(CNC(C)(C)C(=O)O)cc2Cl)cccc1-c1ccccc1
Activity [1]: Non-Toxic
inhibition in vivo at 50 mg/kg (B16-F10 [2]): 75%
Activity (B16-F10 [3]): 0.41 g
Activity [4]: Non-Toxic
Activity (Mus musculus [6]): 11.7%
Ratio IC50 [8]: > 80
Activity (Mus musculus [10]): 10.2%
inhibition in vivo at 25 mg/kg (H22): 76.5%
Activity [11]: Toxic
Activity [13]: Non-Toxic
Activity (Mus musculus [21]): 57%
Activity [22]: Non-Toxic
Activity (Mus musculus [23]): 11.6%
Activity (Mus musculus [24]): 12.5%
Activity (Mus musculus [25]): 17.7%
Activity (Mus musculus [26]): 62.7%
Activity (Mus musculus [27]): 23%
Activity (Mus musculus [28]): Active
Activity (Mus musculus [29]): 55.4%
Activity (Mus musculus [30]): 0.374%
Activity (Mus musculus [31]): 18.7%
